Data as given in PMC4838876, “Multivalent display of minimal Clostridium difficile glycan epitopes mimics antigenic properties of larger glycans” (Nature Communications, 2016).

Test system: mAbs 2C5, 10A1 and 10D6
Assay: Glycan microarray binding of purified mAbs
Set-up: species or system mouse
Conditions: purified mAbs on microarray, 10 μg ml^−1
Text: Three hybridoma clones termed 2C5, 10A1 and 10D6 produced IgG exclusively binding to 1. […] The three mAbs were of the IgG1 subtype (Fig. 4b). Microarrays with PS-I oligosaccharide substructures were used to determine their binding specificities (Fig. 4c). […] No binding to oligoglucoses 5 and 6, or unrelated glycans 7 or 8 was seen (Fig. 4c,d). Based on these findings, we concluded that the requirements for anti-PS-I antibody binding were a terminal rhamnose that is 1→3 linked to a glucose, as present in glycans 1–3.
Figure 4 Characterization and epitope recognition patterns of anti-PS-I mAbs. (a) SDS–PAGE analysis of the purified mAbs showing bands corresponding to heavy and light IgG chains. (b) Isotyping analysis of the three mAbs. […] (d) Glycan microarray-inferred binding signals to selected PS-I antigens (1–4) expressed as background-subtracted mean fluorescence intensities (MFIs) are shown. […]
Microarray slides were blocked with 1% BSA in PBS (w/v) for 1 h at RT, washed three times with PBS and dried by centrifugation (300 g, 5 min). […] Slides were incubated with fluorescence-labelled secondary antibodies diluted 1:400 in 1% BSA in PBS (w/v) in a humid chamber for 1 h at RT, washed three times with 0.1% Tween-20 in PBS (v/v), rinsed once with deionized water and dried by centrifugation (300 g, 5 min) before scanning with a GenePix 4300A microarray scanner (Molecular Devices). […]

Row | SMILES | Glycan microarray binding signal (in words)
1 | C[C@@H]1O[C@@H](O[C@@H]2[C@@H](O)[C@H](O[C@H]3[C@H](O[C@@H]4O[C@@H](C)[C@H](O)[C@@H](O)[C@H]4O)[C@@H](O)[C@@H](O[C@H]4[C@@H](OCCCCCN)O[C@H](CO)[C@@H](O)[C@@H]4O)O[C@@H]3CO)O[C@H](CO)[C@H]2O)[C@H](O)[C@H](O)[C@H]1O [Compound 1] | Highest binding signals
2 | C[C@@H]1O[C@@H](O[C@@H]2[C@@H](O)[C@H](OCCCCCN)O[C@H](CO)[C@H]2O)[C@H](O)[C@H](O)[C@H]1O [Compound 3, Rha-(1→3)-Glc] | weaker signals
